# According to ChEMBL document CHEMBL4483862, “Open-source discovery of chemical leads for next-generation chemoprotective antimalarials” (2018):
# Tested on: Plasmodium berghei
# Experiment: Luciferase/luciferin-expressing antifolate-resistant parasites were used to infect a culture of HepG2 cells that were pre-incubated with compounds. Infected hepatocytes emit light due to the luciferase reaction. Assay results are presented as the percent inhibition of light emission compared to control. […]
# Type: functional
# Conditions: sporozoite; for IC90: read-out: LUCIFERASE INFECTION ASSAY - IC90
# [1] = read-out: LUCIFERASE INFECTION ASSAY - IC50
SMILES,IC90 [µM],IC50 [1] [µM],other results
Cc1cc(C(=O)C(C)Sc2nnnn2C2CC2)c(C)n1-c1ccccc1 (centres undefined),7.24,–,"IC50 (PBLUC_HILL_SLOPE 0.896, PBLUC_R_SQUARED 0.762, read-out: LUCIFERASE INFECTION ASSAY - IC50): 0.623 µM"
O=C(Nc1ccc(-c2nc3ccccc3[nH]2)cc1)C1CCCO1 (centres undefined),> 10,> 10,–
O=C(Nc1ccccc1)C1=C(N2CCOCC2)/C(=C/c2ccc(Br)cc2)CC1,> 10,> 10,–
Cc1cc(C)cc(C(=O)N(CC2CCCO2)c2nc3ccccc3s2)c1 (centres undefined),> 10,–,"IC50 (FFLUC_HILL_SLOPE 16.6, FFLUC_R_SQUARED 0.205, read-out: LUCIFERASE INFECTION ASSAY - IC50): > 10 µM"
CCOC(=O)c1c(-c2ccccc2)oc2ccc(N(C(C)=O)S(=O)(=O)c3ccc4ccccc4c3)cc12,> 10,6.33,–
Cn1cc(C(=O)Nc2ccc(Sc3ccc(Br)cc3)cc2)cn1,6.49,–,"IC50 (HEPG2TOX_HILL_SLOPE 16.3, HEPG2TOX_R_SQUARED 0.811, PBLUC_HILL_SLOPE 1.99, PBLUC_R_SQUARED 0.873, read-out: LUCIFERASE INFECTION ASSAY - IC50): 2.15 µM"
COc1ccc(-c2nonc2NC(=O)c2oc3ccc(F)cc3c2C)cc1,1.27,–,"IC50 (HEPG2TOX_HILL_SLOPE 1.77, HEPG2TOX_R_SQUARED 0.888, PBLUC_HILL_SLOPE 11.3, PBLUC_R_SQUARED 0.0148, read-out: LUCIFERASE INFECTION ASSAY - IC50): 1.05 µM"
CC(=O)c1ccc(N2CCN(Cc3ccc(C)s3)CC2)cc1,> 10.5,> 10.5,–
CC(=O)c1cccc(-c2cnc3ccc(-c4cccc(C(F)(F)F)c4)nn23)c1,4.27,–,"IC50 (HEPG2TOX_HILL_SLOPE 8.49, HEPG2TOX_R_SQUARED 0.595, PBLUC_HILL_SLOPE 2.29, PBLUC_R_SQUARED 0.849, read-out: LUCIFERASE INFECTION ASSAY - IC50): 1.64 µM"
COc1ccccc1-c1cc(C(=O)Nc2ccc(N3CCCC3)cc2)no1,> 10,> 10,–
COc1ccc(CC(N)c2csc(NC(=O)c3cc(C(C)(C)C)oc3C)n2)cc1 (centres undefined),4.39,2.91,–
CS(=O)(=O)c1ncc(Cl)c(C(=O)C(C#N)c2nc3ccccc3s2)n1 (centres undefined),3.59,3.08,–
CCCc1c(C(=O)OCC)cnn1-c1c(Cl)cc(Cl)cc1Cl,> 9.12,–,"IC50 (HEPG2TOX_HILL_SLOPE 1.55, HEPG2TOX_R_SQUARED 0.952, PBLUC_HILL_SLOPE 4.67, PBLUC_R_SQUARED 0.0395, read-out: LUCIFERASE INFECTION ASSAY - IC50): 8.3 µM"
CCCN(CC(=O)Nc1ccc(Cl)cc1Cl)C(=O)c1cn2ccccc2n1,> 10,–,"IC50 (HEPG2TOX_HILL_SLOPE 2.93, HEPG2TOX_R_SQUARED 0.207, PBLUC_HILL_SLOPE 1.46, PBLUC_R_SQUARED 0.174, read-out: LUCIFERASE INFECTION ASSAY - IC50): > 10 µM"
CCCCN1C(=O)C(=O)c2cc(Br)cc(C)c21,> 10,–,"IC50 (PBLUC_HILL_SLOPE 2.24, PBLUC_R_SQUARED 0.667, read-out: LUCIFERASE INFECTION ASSAY - IC50): 4.61 µM"
CC(C)(C)c1ccc(CSc2nncn2-c2ccc(OCc3ccccc3)cc2)cc1,> 7.68,–,"IC50 (PBLUC_HILL_SLOPE 2.75, PBLUC_R_SQUARED 0.0661, read-out: LUCIFERASE INFECTION ASSAY - IC50): 5.39 µM"
C=Cc1c(SC)sc(C(=O)O)c1C,> 15.4,> 15.4,–
NC(=O)c1ccc(C(F)(F)F)n(CC(=O)c2ccc3c(c2)OCCO3)c1=O,> 10,> 10,–
CCN1CCN(c2ccc(NC(=O)CSc3nc4ccccc4s3)c(C)c2)CC1,> 10,> 10,–
COc1ccccc1/C=C(/C(=O)OCc1cc(=O)n2cc(C)ccc2n1)c1ccccc1,> 10,–,"IC50 (PBLUC_HILL_SLOPE 4.19, PBLUC_R_SQUARED 0.0967, read-out: LUCIFERASE INFECTION ASSAY - IC50): 6.55 µM"
CC(=O)c1sc(SCCS(=O)(=O)c2ccccc2)c2c1CC(C)(C)CC2=O,> 7.81,> 7.81,–
Cc1csc(C(C#N)C(=O)CSc2nnc(Nc3ccc(OC(F)(F)F)cc3)s2)n1 (centres undefined),> 10,–,"IC50 (PBLUC_HILL_SLOPE 2.13, PBLUC_R_SQUARED 0.0111, read-out: LUCIFERASE INFECTION ASSAY - IC50): 7.36 µM"
CCOc1ccc(CN(C)c2ncnc3sc(C)c(C)c23)cc1OC,3.65,–,"IC50 (HEPG2TOX_HILL_SLOPE 1.19, HEPG2TOX_R_SQUARED 0.971, PBLUC_HILL_SLOPE 15.4, PBLUC_R_SQUARED 0.0404, read-out: LUCIFERASE INFECTION ASSAY - IC50): 3.16 µM"
COc1ccc(CCC(=O)NCc2cc(=O)n(C)c(=O)n2C)cc1,> 9.96,> 9.96,–

SMILES,IC90 [µM],IC50 [1] [µM],other results
COc1ccc(-c2nn(-c3ccccc3)cc2/C=C/C(=O)N2CCc3ccccc32)cc1OC,> 10,> 10,–
CC(C)c1ccc(Nc2nccc3nc(-c4ccc(F)c(F)c4)[nH]c23)cc1,> 10,–,"IC50 (HEPG2TOX_HILL_SLOPE 1.58, HEPG2TOX_R_SQUARED 0.81, PBLUC_HILL_SLOPE 0.658, PBLUC_R_SQUARED 0.852, read-out: LUCIFERASE INFECTION ASSAY - IC50): 0.969 µM"
CCCCCC1C(O)CC(c2ccccc2)N(C)C1c1ccccc1 (centres undefined),> 9.78,> 9.78,–
COc1ccc(OCc2cc(C(=O)NCc3ccccc3)c(C)o2)cc1,> 10,–,"IC50 (FFLUC_HILL_SLOPE 16.5, FFLUC_R_SQUARED 0.199, HEPG2TOX_HILL_SLOPE 9.38, HEPG2TOX_R_SQUARED 0.316, read-out: LUCIFERASE INFECTION ASSAY - IC50): > 10 µM"
O=C(c1ccco1)N1CCC(Nc2nc(-c3cccs3)nc3sc4c(c23)CCCC4)CC1,> 10,> 10,–
Cn1c(-c2c(-c3ccccc3)n[nH]c2-c2ccc([N+](=O)[O-])cc2)nc2ccccc21,9.52,–,"IC50 (PBLUC_HILL_SLOPE 3.22, PBLUC_R_SQUARED 0.201, read-out: LUCIFERASE INFECTION ASSAY - IC50): 4.81 µM"
N#Cc1ccc(CN2CCN(Cc3nnc(C(=O)Nc4ccc(Cl)cc4)s3)CC2)cc1,> 10,> 10,–
CN(C)c1cc(-c2cc(Cl)sc2Cl)oc(=O)c1Cl,> 10.2,> 10.2,–
O=C(COc1ccc2[nH]c3ccccc3c(=O)c2c1)N1c2ccccc2OCC1c1ccccc1 (centres undefined),0.0412,–,"IC50 (FFLUC_HILL_SLOPE 10.4, FFLUC_R_SQUARED 0.204, PBLUC_HILL_SLOPE 2.2, PBLUC_R_SQUARED 0.922, read-out: LUCIFERASE INFECTION ASSAY - IC50): 0.0152 µM"
Cc1ccc(C(C)C)c(OCc2ccc(C(=O)N/N=C/c3cccc(O)c3O)cc2)c1,> 10,–,"IC50 (HEPG2TOX_HILL_SLOPE 2.51, HEPG2TOX_R_SQUARED 0.938, PBLUC_HILL_SLOPE 16, PBLUC_R_SQUARED 0.0407, read-out: LUCIFERASE INFECTION ASSAY - IC50): 9.9 µM"
N#Cc1ccc(CNC(=S)Nc2ccc(Cl)c(Cl)c2)cc1,9.71,–,"IC50 (HEPG2TOX_HILL_SLOPE 2.37, HEPG2TOX_R_SQUARED 0.471, PBLUC_HILL_SLOPE 2.37, PBLUC_R_SQUARED 0.613, read-out: LUCIFERASE INFECTION ASSAY - IC50): 3.85 µM"
Cc1ccc(NC(=S)N/N=C2\C(=O)Nc3c(C)cc(C)cc32)c(C)c1,3.68,3.03,–
COc1ccccc1-c1cc(-c2cccc(C(F)(F)F)c2)cnc1N,> 9.58,–,"IC50 (HEPG2TOX_HILL_SLOPE 7.68, HEPG2TOX_R_SQUARED 0.737, read-out: LUCIFERASE INFECTION ASSAY - IC50): > 9.58 µM"
Cc1ccc(Nc2nnc(SC(C)C(=O)NC(C)c3ccc(F)cc3)s2)cc1 (centres undefined),> 10,–,"IC50 (PBLUC_HILL_SLOPE 2.15, PBLUC_R_SQUARED 0.495, read-out: LUCIFERASE INFECTION ASSAY - IC50): 4.9 µM"
O=C(Nc1ccc(F)c(Cl)c1)c1ccc(F)c(Cl)c1,> 10.9,> 10.9,–
COc1cccc(/C=C(\c2nc3ccccc3[nH]2)c2nc3ccccc3s2)c1,> 10,> 10,–
COc1ccc(/C=C2\CSc3ccc(Cl)cc3C2=O)cc1,5.42,–,"IC50 (HEPG2TOX_HILL_SLOPE 3.81, HEPG2TOX_R_SQUARED 0.977, PBLUC_HILL_SLOPE 10.6, PBLUC_R_SQUARED 0.089, read-out: LUCIFERASE INFECTION ASSAY - IC50): 4.41 µM"
Oc1cccnc1NC(c1ccccc1F)c1ccc2cccnc2c1O (centres undefined),9.5,–,"IC50 (FFLUC_HILL_SLOPE 2.5, FFLUC_R_SQUARED 0.451, HEPG2TOX_HILL_SLOPE 1.9, HEPG2TOX_R_SQUARED 0.963, PBLUC_HILL_SLOPE 13, PBLUC_R_SQUARED 0.418, read-out: LUCIFERASE INFECTION ASSAY - IC50): 8.03 µM"
O=C(/N=c1\sc(-c2ccccc2)c(-c2ccccc2)n1CCc1ccccc1)c1ccccc1,> 10,–,"IC50 (FFLUC_HILL_SLOPE 3.75, FFLUC_R_SQUARED 0.66, PBLUC_HILL_SLOPE 10.4, PBLUC_R_SQUARED 0.195, read-out: LUCIFERASE INFECTION ASSAY - IC50): 8.64 µM"
CC(=N\Nc1ccc(F)cc1)/C(=N/O)C(=O)Nc1ccccc1,> 10.5,> 10.5,–
O=C(CSCCS(=O)(=O)c1ccc(Cl)cc1)Nc1cc(C(F)(F)F)cc(C(F)(F)F)c1,> 6.52,–,"IC50 (FFLUC_HILL_SLOPE 10.6, FFLUC_R_SQUARED 0.485, read-out: LUCIFERASE INFECTION ASSAY - IC50): > 6.52 µM"
Cc1nc(COc2ccc(Cl)cc2)sc1C(=O)OC(C)C(=O)N1CCCC1 (centres undefined),> 10,–,"IC50 (PBLUC_HILL_SLOPE 2.47, PBLUC_R_SQUARED 0.699, read-out: LUCIFERASE INFECTION ASSAY - IC50): 4.52 µM"
Nc1cc(C(F)(F)F)ccc1Sc1ccccn1,> 12.2,–,"IC50 (PBLUC_HILL_SLOPE 27.6, PBLUC_R_SQUARED 0.179, read-out: LUCIFERASE INFECTION ASSAY - IC50): 11.8 µM"
